Measured values taken from patent US20220204449A1, “BIASED AGONISTS OF OPIOID RECEPTORS” (ILDONG PHARMACEUTICAL CO., LTD., priority 2020, published 2022).
“Also recorded” adds a separate entry of the source.

Tests used:
Type in all cases: cell-based
[1] = biological target: T1, human μ-opioid receptor, OPRM (Homo sapiens, UniProt P35372); experiment: cAMP accumulation assay (Gi pathway), OPRM cell line; details: Table 1; for EC50 / Emax: cAMP; for OPRM Gi Hill slope: cAMP concentration-response curve; for Emax: normalized to reference agonist DAMGO
T1 construct: host or cells: HEK-293 overexpressing β-arrestin2 fused to a β-galactosidase fragment
Source text: (§1) Human embryonic kidney 293 (HEK-293) cells which transfected overexpress (3-arrestin2 fused β-galactosidase fragment were purchased from DiscoverX. Human OPRM1 gene (NM 000914.3, encoding human μ-opioid receptor, OPRM) and Human OPRD1 gene (NM 000911.3, encoding human δ-opioid receptor, OPRD) were fused to a pCMV-ProLink plasmid which contains complementary β-galactosidase fragment purchased from DiscoverX. To generate human OPRM1 or OPRD1 expression cell lines, HEK-293 cells were transfected to prepared plasmid and grown in DMEM medium with 10% fetal bovine serum, 150 μg/mL Hygromycin B and 500 μg/mL G418.
(§2) Cyclic Adenosine Monophosphate (cAMP) Accumulation
(§3) The agonist's efficacy to the G protein pathway was determined by changes in the cAMP level using the Cisbio cAMP detection kit. The cells used in cAMP assays are the same cell line as used in the β-arrestin 2 assays. The human opioid receptor activates the Gαi so intracellular cAMP accumulation is inhibited. Cisbio detection kit uses labeled cAMP and antibody. This system proceeds to compete with endogenous cAMP. If Gαi is activated, intracellular cAMP decreases. This assures that labeled-cAMP binds more with the antibody so that time-resolved fluorescence […].
(§4) cAMP and β-arrestin assays described above were conducted to decide whether candidate compounds were μ- and/or δ-opioid receptor bias agonists for the G-protein pathway. All assays produced the concentration-response curve, and the curve data was validated by a quality control factor named Z′ factor. Because half-maximal effect concentration (EC50) depends on the population of receptors, the maximal asymptote of the concentration curve was used. Efficacy data of candidates was normalized by comparison to reference agonists DAMGO and SNC80 for OPRM and OPRD.
(§5) The hill slope describes the steepness of the curve. […] We set the appropriate interval of hill slope as 0.8<n<1.5 which maintains the sigmoidal curve shape.

[2] = biological target: T2, human δ-opioid receptor, OPRD (Homo sapiens, UniProt P41143); experiment: cAMP accumulation assay (Gi pathway), OPRD cell line; details: Table 1; for OPRD Gi Hill slope: cAMP concentration-response curve; for Emax / EC50: cAMP; for Emax: normalized to reference agonist SNC80; for EC50: read-out: OPRD Gi EC50
T2 construct: host or cells: HEK-293 overexpressing β-arrestin2 fused to a β-galactosidase fragment
Source text: as §1, §2, §3, §4, §5

[3] = biological target: T1, human μ-opioid receptor, OPRM; experiment: PathHunter β-arrestin 2 assay, OPRM cell line
Source text: as §1
(§6) The PathHunter enzyme assay was performed to measure the agonist's capability of β-arrestin 2 pathway activation. When agonists bind to G protein-coupled receptor (GPCR), the receptor pathway is sequentially activated from G protein to β-arrestin 2 recruitment.
(§7) Because […] β-arrestin 2 and C-terminal of GPCR have a fragment of β-galactosidase, recruitment of β-arrestin 2 to GPCR forms the whole β-galactosidase. The functionality of the whole β-galactosidase is detected by chemiluminescence (FlexStation3, Molecular Devices).
as §4

[4] = biological target: T2, human δ-opioid receptor, OPRD; experiment: PathHunter β-arrestin 2 assay, OPRD cell line
Source text: as §1, §6, §7, §4

[5] = biological target: T1, human μ-opioid receptor, OPRM; experiment: Dominant assay: cAMP assay with/without irreversible antagonist β-FNA, OPRM cell line; details: for maximal response on decreasing receptor population (dominant tendency), in words: OPRM cell lines, β-FNA
Source text: (§8) To confirm the agonist's efficacy in a nature-like system, we need inactivation of target receptors on the cell membrane. Most cell lines have an abundant target receptor population (also known as spare receptors). Therefore, agonists have more opportunity to constitute agonist-receptor conformation. In this environment, not only full agonists but also partial agonists can reach maximal response.
(§9) If the partial agonist is selected as a full agonist, translational in vivo research will likely fail.
(§10) Non-competitive, irreversible antagonists can be applicable to judge the pharmacological character of agonists because they permanently decrease the receptor population in the cell line system. β-FNA or β-CNA is used as a non-competitive and irreversible antagonist for OPRM, OPRD. Before cAMP assay, cells were incubated with β-FNA or β-CNA for 40 minutes. Afterwards, the procedure is the same.
(§11) If a partial agonist compound acts as a full agonist due to receptor population (pseudo full agonist), it cannot sustain maximal response with reduced receptor population. However, a full agonist compound maintains their maximal response even though increased EC50.

[6] = biological target: T2, human δ-opioid receptor, OPRD; experiment: Dominant assay: cAMP assay with/without irreversible antagonist β-CNA, OPRD cell line; details: for completeness of concentration-response curve, in words: OPRD system
Source text: as §8, §9, §10, §11

[7] = Example 3, Tables 5-7, read-out: OPRM β-ARR2 Emax (%)
[8] = Table 1, normalized to reference agonist DAMGO, read-out: OPRM arrestin Emax, %
[9] = Example 3, Tables 5-7, read-out: OPRD β-ARR2 Emax (%)
[10] = Table 1, normalized to reference agonist SNC80, read-out: OPRD arrestin Emax, %
[11] = addition of β-FNA, Example 3, Tables 5-7, read-out: OPRM Gi β-FNA (+) EC50
[12] = addition of β-FNA, Example 3, Tables 5-7, read-out: OPRM Gi β-FNA (+) Emax (%)
[13] = addition of β-FNA, repeated dominant assay, Example 4, Tables 8-10, read-out: OPRM Gi β-FNA (+) EC50
[14] = addition of β-FNA, repeated dominant assay, Example 4, Tables 8-10, read-out: OPRM Gi β-FNA (+) Emax (%)
[15] = no addition of β-FNA, Example 3, Tables 5-7, read-out: OPRM Gi β-FNA (−) EC50
[16] = no addition of β-FNA, Example 3, Tables 5-7, read-out: OPRM Gi β-FNA (−) Emax (%)
[17] = no addition of β-FNA, repeated dominant assay, Example 4, Tables 8-10, read-out: OPRM Gi β-FNA (−) EC50
[18] = no addition of β-FNA, repeated dominant assay, Example 4, Tables 8-10, read-out: OPRM Gi β-FNA (−) Emax (%)
[19] = addition of β-CNA, Example 3, Tables 5-7, read-out: OPRD Gi β-CNA (+) EC50
[20] = addition of β-CNA, Example 3, Tables 5-7, read-out: OPRD Gi β-CNA (+) Emax (%)
[21] = addition of β-CNA, repeated dominant assay, Example 4, Tables 8-10, read-out: OPRD Gi β-CNA (+) EC50
[22] = addition of β-CNA, repeated dominant assay, Example 4, Tables 8-10, read-out: OPRD Gi β-CNA (+) Emax (%)
[23] = no addition of β-CNA, Example 3, Tables 5-7, read-out: OPRD Gi β-CNA (−) EC50
[24] = no addition of β-CNA, Example 3, Tables 5-7, read-out: OPRD Gi β-CNA (−) Emax (%)
[25] = no addition of β-CNA, repeated dominant assay, Example 4, Tables 8-10, read-out: OPRD Gi β-CNA (−) EC50
[26] = no addition of β-CNA, repeated dominant assay, Example 4, Tables 8-10, read-out: OPRD Gi β-CNA (−) Emax (%)

T2 sequence (P41143 whole entry, the tested form may be a part): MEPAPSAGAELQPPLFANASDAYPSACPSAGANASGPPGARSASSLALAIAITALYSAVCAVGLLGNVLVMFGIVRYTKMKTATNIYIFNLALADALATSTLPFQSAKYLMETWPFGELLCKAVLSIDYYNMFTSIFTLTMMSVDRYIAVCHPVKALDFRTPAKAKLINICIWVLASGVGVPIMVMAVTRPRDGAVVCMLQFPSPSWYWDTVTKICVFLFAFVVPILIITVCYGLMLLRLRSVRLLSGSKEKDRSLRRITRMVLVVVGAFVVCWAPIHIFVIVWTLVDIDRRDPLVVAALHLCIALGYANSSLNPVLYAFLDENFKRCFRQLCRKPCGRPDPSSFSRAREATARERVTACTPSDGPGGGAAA
T1 sequence (P35372 whole entry, the tested form may be a part): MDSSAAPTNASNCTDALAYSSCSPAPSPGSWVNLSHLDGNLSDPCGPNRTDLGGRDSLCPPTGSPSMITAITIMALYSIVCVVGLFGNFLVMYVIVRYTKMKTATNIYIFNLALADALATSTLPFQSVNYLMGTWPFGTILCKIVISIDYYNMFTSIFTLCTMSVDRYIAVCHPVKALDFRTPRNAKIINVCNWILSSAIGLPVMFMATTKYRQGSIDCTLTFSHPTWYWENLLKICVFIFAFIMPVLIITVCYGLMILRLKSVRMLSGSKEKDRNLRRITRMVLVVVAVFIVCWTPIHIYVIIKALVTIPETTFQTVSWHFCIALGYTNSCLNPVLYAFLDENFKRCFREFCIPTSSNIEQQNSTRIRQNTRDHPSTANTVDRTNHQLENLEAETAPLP

SMILES	EC50 [1]	OPRM Gi Hill slope [1]	Emax [1]	OPRD Gi Hill slope [2]	Emax [2]	EC50 [2]	Emax [3, 7]	Emax [3, 8]	Emax [4, 9]	Emax [4, 10]	maximal response on decreasing receptor population (dominant tendency), in words [5]	EC50 [5, 11]	Emax [5, 12]	EC50 [5, 13]	Emax [5, 14]	EC50 [5, 15]	Emax [5, 16]	EC50 [5, 17]	Emax [5, 18]	completeness of concentration-response curve, in words [6]	further results
CN(C)C(CNC(=O)Cc1ccc2c(c1)OCCO2)c1ccccc1 (racemic) [Compound 1, 2-(2,3-dihydro-1,4-benzodioxin-6-yl)-N-[2-(dimethylamino)-2-phenylethyl]acetamide]	0.73 µM	0.99	102%	1.39	88.9%	4.16 µM	12.9%	12.9%	7.37%	7.37%	showed a similar pattern as compared to DAMGO	5.86 µM	88.2%	3.88 µM	67.5%	2.09 µM	101%	1.16 µM	100%	curve was cut due to the X-axis limitation	EC50 [6, 19]: 0.009 µM; Emax [6, 20]: 108%; EC50 [6, 21]: 7.87 µM; Emax [6, 22]: 46.6%; EC50 [6, 23]: 0.00491 µM; Emax [6, 24]: 113%; EC50 [6, 25]: 8.77 µM; Emax [6, 26]: 104%
CN1CCc2cc(C(CNC(=O)Nc3ccc(F)cc3)N(C)C)ccc21 (racemic) [Compound 2, 3-[2-(dimethylamino)-2-(1-methyl-2,3-dihydro-1H-indol-5-yl)ethyl]-1-(4-fluorophenyl)urea]	1.88 µM	0.94	109%	1.44	92.4%	1.05 µM	15.3%	15.3%	4.66%	4.66%	showed a similar pattern as compared to DAMGO; also recorded: resistant to decreasing spare receptors; also recorded: resistant to decreasing spare receptor-induced tendency	1.17 µM	80.1%	4.19 µM	77.4%	0.682 µM	98.6%	1.7 µM	103%	produced a full concentration-response curve	maximal response on decreasing receptor population (dominant tendency), in words ([6]; OPRD cell lines, β-CNA): resistant to decreasing spare receptors; also recorded: resistant to decreasing spare receptor-induced tendency; EC50 [6, 19]: 2.38 µM; Emax [6, 20]: 78.5%; EC50 [6, 21]: 6.22 µM; Emax [6, 22]: 70.2%; EC50 [6, 23]: 0.00498 µM; Emax [6, 24]: 98.9%; EC50 [6, 25]: 1.65 µM; Emax [6, 26]: 100%
